The values below come from patent US11945811B2, “Potassium channel inhibitors” (ACESION PHARMA APS, priority 2021, dated 2024).

Molecules are shown by their SMILES.

The target in this assay is T1, human SK3 channel (hKCa2.3) (Homo sapiens, UniProt Q9UGI6).
T1 construct: expressed in transfected cells
Nature of the assay: Automated patch clamping (QPatch 16 HT whole-cell recordings). The assay is classed as cell-based. The settings on record: HEK-293 cells stably expressing hKCa2.3; currents measured at −80 mV; normalized to N-methyl bicuculline; read-out: IC50 in the Automated patch clamping assay (SK3 channel inhibition). As for the experimental part:
Automated whole cell patch-clamp recordings were performed using a QPatch 16 HT system and single-hole Qplates (Sophion, Denmark) on HEK-293 cells stably expressing the human SK3 channel (hKCa2.3). Cells were cultured and prepared for experiments using normal cell culturing procedures. A total of 4-5 million cells were used per experiment. The Qpatch automatically generates giga sealing, whole-cell formation, compound application and recording of current. hKCa2.3 currents were recorded in symmetrical K^+ solutions. The intracellular/pipette solution contained 154 mM KCl, 10 mM HEPES and 10 mM EGTA. CaCl2 is added to give calculated free concentrations of Ca^2+ of 0.4 μM and MgCl2 is added to give a free concentration of 1 mM. In order to maintain a total [K^+] of 156 mM (corresponding to the concentration in the extracellular ringer) a fixed amount of KOH (15 mM) is added, thereafter pH is adjusted with HCl to pH=7.2. Expected osmolarity: 275 mOsm. Sucrose was added to a final osmolarity around 295 mosm. The extracellular solution consisted of (in mM): CaCl2 0.1, MgCl2 3, KCl 150, HEPES 10 and glucose 10, pH=7.4 adjusted with KOH. Osmolarity between 285-295 mosm. The cells were held at 0 mV and hKCa2.3 currents were elicited by a linear voltage ramp from −80 mV to +80 mV (200 ms in duration) applied every 5th second.
The compound application protocol consisted of 12 recording periods lasting 200 s: 1) Baseline recordings in extracellular solution; 2) Application of the positive control N-methyl bicuculline (100 μM), which is characterized by full efficacy, fast on- and off-rate; 3-4) Wash-out; 5-10) Increasing concentrations of test compound to establish an IC50 value; 11-12) Wash-out; 13) positive control with compound NS8593 (N-[(1R)-1,2,3,4-tetrahydro-1-naphthalenyl]-1H-benzimidazol-2-amine) (1 μM) or with N-methyl bicuculline (100 μM). Data were sampled at 10 kHz, 4th order Bessel filter, cut-off frequency 3 kHz. Currents were compensated for run-down. Potency was quantified as the concentration needed to inhibit half of the SK channel activity and reported as an IC50 value.
All effects of compounds of the present invention as tested were normalized to the observed inhibitory effect of N-methyl bicuculline. Currents were measured at −80 mV.
Background: In patch-clamp work, channel activity is measured electrically.
With `CC(CO)(Nc1nc2c(Cn3ccoc3=N)cccc2[nH]1)c1ccc(Cl)c(Cl)c1` (single isomer, unassigned) [Example 19a], the IC50 was below 1 µM.
The value for `Cc1cn(Cc2cccc3[nH]c(NC(C)(CO)c4cccc(C(F)(F)F)c4)nc23)c(=N)o1` (single isomer, unassigned) [Example 24a] was below 30 µM; that for `CC(CO)(Nc1nc2c(Cn3ccoc3=N)cccc2[nH]1)c1cccc(OC(F)(F)F)c1` (single isomer, unassigned) [Example 27b] was below 30 µM.
Next, `CC(CO)(Nc1nc2c(Cn3ccoc3=N)cccc2[nH]1)c1ccc(Cl)c(F)c1` (single isomer, unassigned) [Example 39a, 2-(4-chloro-3-fluorophenyl)-2-({4-[(2-imino-2,3-dihydro-1,3-oxazol-3-yl)methyl]-1H-1,3-benzodiazol-2-yl}amino)propan-1-ol]: below 1 µM; `CC(CO)(Nc1nc2c(Cn3ccoc3=N)cccc2[nH]1)c1ccc(Cl)c(F)c1` (single isomer, unassigned) [Example 39b, 2-(4-chloro-3-fluorophenyl)-2-({4-[(2-imino-2,3-dihydro-1,3-oxazol-3-yl)methyl]-1H-1,3-benzodiazol-2-yl}amino)propan-1-ol]: below 30 µM.
Next, `CC(CO)(Nc1nc2c(CNc3ccon3)cccc2[nH]1)c1cccc(Cl)c1F` (single isomer, unassigned) [Example 43a]: below 30 µM; `CC(CO)(Nc1nc2c(CNc3ccon3)cccc2[nH]1)c1ccc(Cl)c(F)c1` (single isomer, unassigned) [Example 44a]: below 30 µM.
Take `CC(CO)(Nc1nc2c(Cn3ccoc3=N)cccc2[nH]1)c1cc(F)cc(Cl)c1` (single isomer, unassigned) [Example 45a]: the IC50 was below 1 µM.
The value for `CC(CO)(Nc1nc2c(Cn3ccoc3=N)cccc2[nH]1)c1cc(Cl)ccc1F` (single isomer, unassigned) [Example 47a] was below 1 µM; that for `CC(CO)(Nc1nc2c(Cn3ccoc3=N)cccc2[nH]1)c1cccc(Cl)c1` (single isomer, unassigned; (+)) [Example 3b, (+)-2-(3-chlorophenyl)-2-({4-[(2-imino-2,3-dihydro-1,3-oxazol-3-yl)methyl]-1H-1,3-benzodiazol-2-yl}amino)propan-1-ol] was below 30 µM.
On to `CC(CO)(Nc1nc2c(Cn3ccoc3=N)cccc2[nH]1)c1ccc(F)c(Cl)c1` (single isomer, unassigned; (+)) [Example 8b, (+)-2-(3-chloro-4-fluorophenyl)-2-({4-[(2-imino-2,3-dihydro-1,3-oxazol-3-yl)methyl]-1H-1,3-benzodiazol-2-yl}amino)propan-1-ol], for which the half-maximal inhibitory concentration (IC50) was below 30 µM.
Next, `Cc1cc(NCc2cccc3[nH]c(NC(C)(CO)c4ccc(F)c(Cl)c4)nc23)no1` (single isomer, unassigned; (+)) [Example 12b, (+)-2-(3-chloro-4-fluorophenyl)-2-((4-(((5-methylisoxazol-3-yl)amino)methyl)-1H-benzo[d]imidazol-2-yl)amino)propan-1-ol]: below 30 µM; `CC(CO)(Nc1nc2c(Cn3ccoc3=N)cccc2[nH]1)c1cccc(C(F)(F)F)c1` (single isomer, unassigned; (+)) [Example 18b, (+)-2-({4-[(2-imino-2,3-dihydro-1,3-oxazol-3-yl)methyl]-1H-1,3-benzodiazol-2-yl}amino)-2-[3-(trifluoromethyl)-phenyl]propan-1-ol]: below 30 µM.
The value for `CC(CO)(Nc1nc2c(Cn3ccoc3=N)cccc2[nH]1)c1ccc(Cl)c(Cl)c1` (single isomer, unassigned; (+)) [Example 19b, (+)-2-(3,4-dichlorophenyl)-2-({4-[(2-imino-2,3-dihydro-1,3-oxazol-3-yl)methyl]-1H-1,3-benzodiazol-2-yl}amino)propan-1-ol] was below 30 µM; that for `Cc1cn(Cc2cccc3[nH]c(NC(C)(CO)c4cccc(C(F)(F)F)c4)nc23)c(=N)o1` (single isomer, unassigned; (+)) [Example 24b, (+)-2-({4-[(2-imino-5-methyl-2,3-dihydro-1,3-oxazol-3-yl)methyl]-1H-1,3-benzodiazol-2-yl}amino)-2-[3-(trifluoromethyl)-phenyl]propan-1-ol] was below 1 µM.
Next, `CC(CO)(Nc1nc2c(Cn3ccoc3=N)cccc2[nH]1)c1cccc(OC(F)(F)F)c1` (single isomer, unassigned; (+)) [Example 27a, (+)-2-({4-[(2-imino-2,3-dihydro-1,3-oxazol-3-yl)methyl]-1H-1,3-benzodiazol-2-yl}amino)-2-[3-(trifluoromethoxy)phenyl]propan-1-ol]: below 1 µM; `CC(CO)(Nc1nc2c(Cn3ccoc3=N)cccc2[nH]1)c1cccc(Cl)c1F` (single isomer, unassigned; (+)) [Example 41b, (+)-2-(3-chloro-2-fluorophenyl)-2-({4-[(2-imino-2,3-dihydro-1,3-oxazol-3-yl)methyl]-1H-1,3-benzodiazol-2-yl}amino)propan-1-ol]: below 30 µM; `CC(CO)(Nc1nc2c(CNc3ncco3)cccc2[nH]1)c1cccc(Cl)c1F` (single isomer, unassigned; (+)) [Example 42a, (+)-2-(3-chloro-2-fluorophenyl)-2-[(4-{[(1,3-oxazol-2-yl)amino]methyl}-1H-1,3-benzodiazol-2-yl)amino]propan-1-ol]: below 30 µM.
Turning to `CC(CO)(Nc1nc2c(Cn3ccoc3=N)cccc2[nH]1)c1cc(F)cc(Cl)c1` (single isomer, unassigned; (+)) [Example 45b, (+)-2-(3-chloro-5-fluorophenyl)-2-({4-[(2-imino-2,3-dihydro-1,3-oxazol-3-yl)methyl]-1H-1,3-benzodiazol-2-yl}amino)propan-1-ol], the IC50 was below 30 µM.
Take `CC(CO)(Nc1nc2c(Cn3ccoc3=N)cccc2[nH]1)c1cc(Cl)ccc1F` (single isomer, unassigned; (+)) [Example 47b, (+)-2-(5-chloro-2-fluorophenyl)-2-({4-[(2-imino-2,3-dihydro-1,3-oxazol-3-yl)methyl]-1H-1,3-benzodiazol-2-yl}amino)propan-1-ol]: the IC50 is below 30 µM.
The value for `CC(CO)(Nc1nc2c(CNc3ncco3)cccc2[nH]1)c1cc(Cl)ccc1F` (single isomer, unassigned; (+)) [Example 48a, (+)-2-(5-chloro-2-fluorophenyl)-2-[(4-{[(1,3-oxazol-2-yl)amino]methyl}-1H-1,3-benzodiazol-2-yl)amino]propan-1-ol] was below 30 µM; that for `CC(CO)(Nc1nc2c(CNc3ccon3)cccc2[nH]1)c1cc(Cl)ccc1F` (single isomer, unassigned; (+)) [Example 49a, (+)-2-(5-chloro-2-fluorophenyl)-2-[(4-{[(1,2-oxazol-3-yl)amino]methyl}-1H-1,3-benzodiazol-2-yl)amino]propan-1-ol] was below 30 µM; that for `CC(CO)(Nc1nc2c(Cn3ccoc3=N)cccc2[nH]1)c1cccc(Cl)c1` (single isomer, unassigned; (-)) [Example 3a, (−)-2-(3-chlorophenyl)-2-({4-[(2-imino-2,3-dihydro-1,3-oxazol-3-yl)methyl]-1H-1,3-benzodiazol-2-yl}amino)propan-1-ol] was below 1 µM.
As for `CC(CO)(Nc1nc2c(Cn3ccoc3=N)cccc2[nH]1)c1ccc(F)c(Cl)c1` (single isomer, unassigned; (-)) [Example 8a, (−)-2-(3-chloro-4-fluorophenyl)-2-({4-[(2-imino-2,3-dihydro-1,3-oxazol-3-yl)methyl]-1H-1,3-benzodiazol-2-yl}amino)propan-1-ol], the IC50 is below 1 µM.
As to `Cc1cc(NCc2cccc3[nH]c(NC(C)(CO)c4ccc(F)c(Cl)c4)nc23)no1` (single isomer, unassigned; (-)) [Example 12a, (−)-2-(3-chloro-4-fluorophenyl)-2-((4-(((5-methylisoxazol-3-yl)amino)methyl)-1H-benzo[d]imidazol-2-yl)amino)propan-1-ol], the IC50 was below 1 µM.
The value for `Cc1coc(=N)n1Cc1cccc2[nH]c(NC(C)(CO)c3ccc(F)c(Cl)c3)nc12` (single isomer, unassigned; (-)) [Example 13a, (−)-2-(3-chloro-4-fluorophenyl)-2-({4-[(2-imino-4-methyl-2,3-dihydro-1,3-oxazol-3-yl)methyl]-1H-1,3-benzodiazol-2-yl}amino)propan-1-ol] was below 1 µM.

For orientation: IC50 means the concentration needed to halve the response being measured.
